Source: patent US6340708B1, “Pharmaceutical composition comprising at least one aminopeptidase A inhibitor” (Institut National de la Sante et de la Recherche Medicale …, priority 1998, dated 2002)
Entries after “also recorded” stand apart in the source; their conditions may differ.

Experiments:
[1] = test system: arterial pressure of WKY normotensive and SHR hypertensive rats; assay: Mean arterial pressure in anaesthetized WKY and SHR rats after i.c.v. injection; assay type: in vivo, rat; details: for antagonist effect on PC18-induced increase in arterial pressure: Losartan 10 μg pretreatment, PC18 60 μg; for maximum hypotensive effect (change in arterial pressure): 100 μg i.c.v.
Description: The rats used are male Sprague-Dawley rats weighing 200 to 250 grams; some of them are 11-week-old rats (SHR). Wistar Kyoto normotensive rats are also used as controls. The animals are kept for one week with alternating 12-hour periods of light and half-light, and have water and food available ad libitum. For each experiment, the SHR and WKY rats are weighed, and their arterial pressure and cardiac rhythm are continuously recorded via an invasive route after inserting a catheter (PE 50) into the femoral artery. The catheter is linked to a pressure sensor (COBE) and connected to a signal processor which is linked to an amplifier. The computer system comprises a MacLab interface system and application software (Chart and Scope) which allows data acquisition and calculation through a Macintosh computer.
These experiments are carried out in Wistar Kyoto (WKY) normotensive rats or spontaneously hypertensive rats (SHR 12 weeks old).
The animals are anaesthetized with Inactin (5-ethyl-2-(1′-methylpropyl)-2-thiobarbita), this being an anaesthetic which is used regularly in renal or cardiovascular physiology experiments. Its properties are to cause a very slight drop in arterial pressure, which is visible only in SHR rats, and especially to allow a stable basal arterial pressure to be maintained throughout the experiment.
The mean arterial pressure (systolic+diastolic) is measured continuously, via an invasive route, after catheterizing the femoral artery. The peptides or the inhibitors, are injected via the intracerebroventricular (i.c.v.) route with the aid of a cannula positioned in the lateral ventricle under stereotaxy (Stereotaxic Atlas; G. Paxinos and C. Watson, Academic Press, 1986).
The experiments are carried out on groups of 4 to 20 individually analysed animals. The results on batches of control animals and treated animals were compared with the aid of an analysis of variance (ANOVA), followed by an unpaired Student's test.
An injection of angiotensin II is carried out combined, where appropriate, with a consecutive injection of EC33.
In accordance with the protocol described in Example 3, AngIII (10 ng) in the presence of 60 μg of PC18 is injected into SHR rats. As a control test, an injection of PC18 alone is carried out.

[2] = test system: formation of angiotensin III from [3H]AngII in hypothalamus; assay: In vivo metabolism of tritiated AngII/AngIII in murine hypothalamus after i.c.v. injection; parameters: species or system mouse; details: mice
Procedure: Male Swiss mice (available from the IFFA Credo Institute) weighing 18 to 20 grams are maintained under artificial light (12 hours in bright phase - 12 hours in half-light) and have food and water available ad libitum. The experiments are carried out between 9 o'clock and 11 o'clock in the morning. The drugs are administered into the lateral ventricle by the intracerebroventricular route (i.c.v) at an amount of 5 μl per mouse according to the method of Haley and McCormick (Br. J. Pharmacol. 12, 12-15).
For each experiment, six to eight mice are used for each of the conditions. A mixture of 2×10^6 cpm of [^3H]Ang II and 30 μg of unlabelled Ang II is administered in a 5 μl volume, alone or together with EC33 (30 μg). The inhibitors are dissolved in an isotonic saline solution adjusted to a pH of 7.4 with 0.01 M NaOH solution. At various times after the injection, the mice are decapitated, their brains are removed and their hypothalami are dissected on ice and homogenized by sonication (ultrasons, Anemasse, France) in 10 volumes of a 0.1 M HCl solution cooled in ice. […]
The respective amounts of labelled angiotensins II and III present in the hypothalamus are determined according to the protocol of Ledwith et al. (Anal. Biochem. 213, 349-355). […] The F1 and F2 fractions are then analysed by HPLC to determine their respective content of tritiated angiotensin II and tritiated angiotensin III.
With the aim of an HPLC analysis, the F1 and F2 fractions are initially concentrated by extraction on a C18 Sep-pak® Cartridges device (Waters). […] After elution on Sep-pak®, the respective F1 and F2 fractions are freeze-dried, dissolved in 0.2 ml of a 0.01 M acetic acid solution, with 20 ng of angiotensin II and of angiotensin III as internal standard, and analysed by HPLC.
The HPLC analysis is carried out using an H Hypersil ODS®-3 μm reverse phase column (Shandon, Pittsburgh) heated to 45° C., then with an isocratic elution at a flow rate of 0.6 ml per minute. […] Their radioactivity content is estimated with a beta counter. […]

[3] = test system: arterial pressure of conscious SHR rats; assay: Arterial pressure in conscious SHR rats after i.c.v. or i.v. injection; assay type: in vivo, rat
Procedure: These experiments are carried out in a 12-week-old SHR rats (300-350 g). During the operation, the animals are anaesthetized for a limited time (3 hours) with sodium pentobarbital (50 mg/kg intraperitoneal, Laboratoire Sentravet, Plancoët, France) The experiments are carried out a minimum of 24 hours after the operation.
The injections are carried out with the aid of a cannula positioned in the lateral ventricle under stereotaxy, and the arterial pressure is measured continuously, via an invasive route, after catheterizing the femoral artery. The catheter is exteriorized at the level of the animal's neck, and is linked to a fixing system which allows the rat to move around freely in its cage.
A first catheter is positioned in the femoral vein in order to carry out the injections, a second catheter is introduced into the femoral artery in order to be able to measure arterial pressure continuously. Both catheters are then exteriorized as indicated above.

aminopeptidase A (APA) = assay: Measurement of APA activity in vitro (GluβNa hydrolysis, purified APA); details: APN versus APA
Description: In vitro, in the presence of calcium ions, APA hydrolyses α-L-glutamyl-β-naphthylamide (gluβNa) to glutamate and β-naphthylamine (βNa). A diazotation reaction in acid medium makes it possible to reveal the β-naphthylamine by formation of a violet-coloured complex: spectrophotometric measurement then makes it possible to know the amount of complex formed and, by reference to a standard curve produced with increasing concentrations of β-naphthylamine, to deduce therefrom the enzymatic activity of the sample.
The GluβNa substrate and the β-naphthylamine (Bachem) are dissolved in DMSO (dimethyl sulphoxide) and 0.1 N HCl respectively, and conserved at −20° C. at a concentration of 10^−2 M. The diazotation reaction is carried out in the presence of sodium nitrite (87 mM), ammonium sulphamate (130 mM) and N-(1-naphthyl)-ethylenediamine dihydrochloride (23 mM).
The reaction takes place at pH 7.4 in 50 mM tris-HCl buffer, in the presence of calcium (4 mM CaCl2); the sample to be assayed is incubated at 37° C. in the presence of substrate (200 μM GluβNa) and in the presence or absence of various concentrations of the inhibitor to be tested, in a final volume of 100 μl. The reaction is stopped by adding 10 μl of 3N HCl. A standard curve of β-naphthylamine in acid medium (add 10 μl of 0.1 N HCl) is produced in parallel.
The following are added to each well: […]

In the case of `CCCCc1nc(Cl)c(CO)n1Cc1ccc(-c2ccccc2-c2nn[nH]n2)cc1` [Losartan], the “antagonist effect on PC18-induced increase in arterial pressure” value ([1]; hypertensive rats) is reported as “about 52%” and the “antagonist effect on PC18-induced increase in arterial pressure” value ([1]; normotensive rats) is reported as “about 85%”.
“angiotensin II (DRVYIHPF; Angiotensin-2; UniProt P01019 25-32, looked up) [ANGII, angiotensin II peptide available from Amersham or Sigma]” was tested, and the “maximum magnitude of increase in arterial pressure” value ([1]; AngII 10 ng i.c.v., WKY and SHR rats) was “approximately 10 mmHg”.
`N[C@H](CS)CCS(=O)(=O)[O-].[Na+]` [EC33, sodium (S)-3-amino-4-mercaptobutylsulphonate] was tested, and the “effect on the AngII-induced increase in arterial pressure” value ([1]; AngII 10 ng with EC33 100 μg i.c.v.) was “completely eliminated”, the “modification of the effect on pressure of AngIII” value ([1]; AngIII 30 ng with EC33 i.c.v.) was “ineffectiveness” and the “maximum hypotensive effect (change in arterial pressure)” value ([1]; hypertensive (SHR) anaesthetized rats) was −28 mmHg. The “maximum hypotensive effect (change in arterial pressure)” value ([1]; normotensive (WKY) anaesthetized rats) was −22 mmHg, the “formation of tritiated AngIII in hypothalamus” value ([2]; EC33 30 μg i.c.v.) was “immediately blocked; also recorded: totally blocks” and the “half-life of [3H]AngII in hypothalamus” value ([2]; EC33 30 μg i.c.v. with [3H]AngII and 30 μg AngII) was 5.38 ± 0.21 min. For the same compound, the “[3H]AngII content in hypothalamus, times the content of the control test” value ([2]; EC33 30 μg i.c.v., between 0.5 and 7 minutes) was “approximately 11”, the “decrease in arterial pressure” value ([3]; 100 μg i.c.v.) was −26 mmHg and the “duration of hypotensive effect” value ([3]; 100 μg i.c.v.) was 40 min. The hypotensive effect ([3]; 45 mg/kg i.v.) was “does not induce a significant hypotensive effect”.
For `CSCC[C@H](N)CS` [PC18, methioninethiol], the “effect on the pressure effect of AngIII” value ([1]; AngIII 10 ng with PC18 60 μg i.c.v., SHR rats) was “potentiation”, the “increase in arterial pressure” value ([1]; PC18 60 μg i.c.v., normotensive rats) was “+10 mmHg” and the “duration of pressure effect” value ([1]; PC18 alone 60 μg i.c.v., SHR rats) was “approximately 12 minutes”. The “times less active on APA than on APN” value (aminopeptidase A (APA)) was 1000.
